This is an account of results in patent US20150299188A1, “HETEROCYCLIC COMPOUND” (priority 2012, published 2015).

The assay has as its system FLAP (5-lipoxygenase activating protein). The assay is described as follows: In vitro binding test: displacement of [3H]-7-chloro-3-(5-((3-fluoropyridin-2-yl)methoxy)-2-methylphenyl)-3,4-dihydroquinazolin-2(1H)-one from Sf9 microsome fractions. Set-up: species or system human and mouse. To be noted: Sf9 microsome fractions expressing FLAP; 100% = radioligand binding with 10 μM sodium 3-(3-(tert-butylsulfanyl)-1-(4-chlorobenzyl)-5-isopropyl-1H-indol-2-yl)-2,2-dimethylpropanoate, 0% = DMSO; test compound concentration not given. In a few lines:
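Sf9 microsomes expressing human or mouse FLAP (2 μg/mL) preincubated with compound 10 min at room temperature, then 120 nM tritiated quinazolinone ligand added for 60 min; buffer 100 mM Tris-HCl pH 7.5 with NaCl, EDTA, DTT, glycerol, Tween20. Bound ligand filtered and counted by scintillation; 10 μM indole propanoate defines 100% inhibition, DMSO 0%.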
For orientation: In a radioligand displacement assay an active substance lowers the binding of a labelled ligand.

Take `Cc1ccc(OCc2ccc(F)cc2F)cc1N1Cc2ccc(C(C)(C)O)cc2NC1=O` [Example 201, 3-(5-((2,4-difluorobenzyl)oxy)-2-methylphenyl)-7-(2-hydroxypropan-2-yl)-3,4-dihydroquinazolin-2(1H)-one]: the “inhibitory rate (%)” value was 104%.

As to `Cc1cc2c(cc1N1Cc3c(ccnc3Cl)NC1=O)OC(c1ccccn1)CC2` (centres unmarked) [Example 51, 5-chloro-3-(6-methyl-2-(pyridin-2-yl)-3,4-dihydro-2H-chromen-7-yl)-3,4-dihydropyrido[4,3-d]pyrimidin-2(1H)-one], the “inhibitory rate (%)” value was determined as 105%.

Take `Cc1cc2c(cc1N1Cc3c(Cl)cnc(N(C)C)c3NC1=O)OC(c1ncccc1F)CC2` (centres unmarked) [Example 165, 5-chloro-8-(dimethylamino)-3-(2-(3-fluoropyridin-2-yl)-6-methyl-3,4-dihydro-2H-chromen-7-yl)-3,4-dihydropyrido[3,4-d]pyrimidin-2(1H)-one]: the “inhibitory rate (%)” value is 104%.

On to `Cc1cc2c(cc1N1Cc3cnccc3NC1=O)OC(c1ncccc1F)CC2` (centres unmarked) [Example 29, 3-(2-(3-fluoropyridin-2-yl)-6-methyl-3,4-dihydro-2H-chromen-7-yl)-3,4-dihydropyrido[4,3-d]pyrimidin-2(1H)-one], for which the “inhibitory rate (%)” value is 99%.

As for `CCc1ccc(OCc2ncccc2F)cc1N1Cc2ccccc2NC1=O` [Example 220, 3-(2-ethyl-5-((3-fluoropyridin-2-yl)methoxy)phenyl)-3,4-dihydroquinazolin-2(1H)-one], the “inhibitory rate (%)” value came to 106%.

For `Cc1ccc(OCc2c(F)cccc2F)cc1N1Cc2nn(C)cc2NC1=O` [Example 236, 6-(5-((2,6-difluorobenzyl)oxy)-2-methylphenyl)-2-methyl-2,4,6,7-tetrahydro-5H-pyrazolo[4,3-d]pyrimidin-5-one], the “inhibitory rate (%)” value came out at 65%.

`CCc1cc2c(c(C3CC3)n1)CN(c1cc3c(cc1C)CCC(c1ncccc1F)O3)C(=O)N2` (centres unmarked) [Example 96, 5-cyclopropyl-7-ethyl-3-(2-(3-fluoropyridin-2-yl)-6-methyl-3,4-dihydro-2H-chromen-7-yl)-3,4-dihydropyrido[4,3-d]pyrimidin-2(1H)-one]: the “inhibitory rate (%)” value is 84%.

Take `Cc1ccc(OCc2c(F)cccc2F)cc1N1Cc2cccc(C(C)(C)O)c2NC1=O` [Example 217, 3-(5-((2,6-difluorobenzyl)oxy)-2-methylphenyl)-8-(2-hydroxypropan-2-yl)-3,4-dihydroquinazolin-2(1H)-one]: the “inhibitory rate (%)” value was determined as 87%.

As for `CC(C)(C)Cc1ccc(OCc2c(F)cccc2F)cc1N1Cc2ccc(C(C)(C)O)cc2NC1=O` [Example 293, 3-(5-((2,6-difluorobenzyl)oxy)-2-(2,2-dimethylpropyl)phenyl)-7-(2-hydroxypropan-2-yl)-3,4-dihydroquinazolin-2(1H)-one], the “inhibitory rate (%)” value is recorded as 84%.

On to `Cc1cc2c(cc1N1Cc3c(Cl)cnc(-c4c(C)nn(C)c4C)c3NC1=O)OC(c1ncccc1F)CC2` (single isomer, unassigned; (+)) [Example 14, (+)-5-chloro-3-(2-(3-fluoropyridin-2-yl)-6-methyl-3,4-dihydro-2H-chromen-7-yl)-8-(1,3,5-trimethyl-1H-pyrazol-4-yl)-3,4-dihydropyrido[3,4-d]pyrimidin-2(1H)-one], for which the “inhibitory rate (%)” value turned out to be 105%.

`COCCOc1ccc2c(=O)n(-c3cc(OCc4ncccc4F)ccc3C)c(=O)n(CCOC)c2c1` [Example 352, 3-(5-((3-fluoropyridin-2-yl)methoxy)-2-methylphenyl)-7-(2-methoxyethoxy)-1-(2-methoxyethyl)quinazoline-2,4(1H,3H)-dione]: the “inhibitory rate (%)” value was 107%.

`Cc1ccc(OCc2c(F)cccc2F)cc1N1Cc2ccc(C(C)(C)O)cc2NC1=O` [Example 180, 3-(5-((2,6-difluorobenzyl)oxy)-2-methylphenyl)-7-(2-hydroxypropan-2-yl)-3,4-dihydroquinazolin-2(1H)-one]: the “inhibitory rate (%)” value is reported as 81%.

`Cc1cc2c(cc1N1Cc3c(Cl)cnc(-c4c(C)nn(C)c4C)c3NC1=O)OC(c1ncccc1F)CC2` (single isomer, unassigned; (-)) [Example 15, (−)-5-chloro-3-(2-(3-fluoropyridin-2-yl)-6-methyl-3,4-dihydro-2H-chromen-7-yl)-8-(1,3,5-trimethyl-1H-pyrazol-4-yl)-3,4-dihydropyrido[3,4-d]pyrimidin-2(1H)-one]: the “inhibitory rate (%)” value was 102%.

Consider `Cc1cc2c(cc1N1Cc3c(cncc3C3CC3)NC1=O)OC(c1ncccc1F)CC2` (centres unmarked) [Example 26, 5-cyclopropyl-3-(2-(3-fluoropyridin-2-yl)-6-methyl-3,4-dihydro-2H-chromen-7-yl)-3,4-dihydropyrido[3,4-d]pyrimidin-2(1H)-one], for which the “inhibitory rate (%)” value is listed as 101%.

Regarding `COc1cccc2[nH]c(=O)n(-c3cc(OCc4ncccc4F)ccc3C)c(=O)c12` [Example 365, 3-(5-((3-fluoropyridin-2-yl)methoxy)-2-methylphenyl)-5-methoxyquinazoline-2,4(1H,3H)-dione], the “inhibitory rate (%)” value came to 94%.

For the compound `O=C1Nc2c(N3CCOCC3)ncc(Cl)c2CN1c1cc2c(cc1Cl)CCC(c1ncccc1F)O2` (centres unmarked) [Example 81, 5-chloro-3-(6-chloro-2-(3-fluoropyridin-2-yl)-3,4-dihydro-2H-chromen-7-yl)-8-(morpholin-4-yl)-3,4-dihydropyrido[3,4-d]pyrimidin-2(1H)-one], the “inhibitory rate (%)” value came to 102%.

For `Cc1ccc(OCc2ccccc2F)cc1N1Cc2ccccc2NC1=O` [Example 172, 3-(5-((2-fluorobenzyl)oxy)-2-methylphenyl)-3,4-dihydroquinazolin-2(1H)-one], the “inhibitory rate (%)” value turned out to be 80%.

As to `O=c1[nH]c2ccccc2c(=O)n1-c1cc(OCc2ncccc2F)ccc1Cl` [Example 344, 3-(2-chloro-5-((3-fluoropyridin-2-yl)methoxy)phenyl)quinazoline-2,4(1H,3H)-dione], the “inhibitory rate (%)” value came out at 114%.

With `Cc1ccc(OCc2c(F)cccc2F)cc1N1Cc2ccc(C(=O)NCCO)cc2NC1=O` [Example 197, 3-(5-((2,6-difluorobenzyl)oxy)-2-methylphenyl)-N-(2-hydroxyethyl)-2-oxo-1,2,3,4-tetrahydroquinazoline-7-carboxamide], the “inhibitory rate (%)” value is reported as 101%.

Take `O=c1[nH]c2cc[nH]c2c(=O)n1-c1cccc(OCc2c(F)cccc2F)c1` [Example 325, 3-(3-((2,6-difluorobenzyl)oxy)phenyl)-1H-pyrrolo[3,2-d]pyrimidine-2,4(3H,5H)-dione]: the “inhibitory rate (%)” value was 65%.

As to `O=C1Nc2c(-c3ccoc3)ncc(Cl)c2CN1c1cc2c(cc1Cl)CCC(c1ncccc1F)O2` (centres unmarked) [Example 155, 5-chloro-3-(6-chloro-2-(3-fluoropyridin-2-yl)-3,4-dihydro-2H-chromen-7-yl)-8-(3-furyl)-3,4-dihydropyrido[3,4-d]pyrimidin-2(1H)-one], the “inhibitory rate (%)” value is 101%.

With `O=C(c1cc2c(c(C3CC3)n1)CN(c1cc3c(cc1Cl)CCC(c1ncccc1F)O3)C(=O)N2)N1CC(F)C1` (centres unmarked) [Example 145, 3-(6-chloro-2-(3-fluoropyridin-2-yl)-3,4-dihydro-2H-chromen-7-yl)-5-cyclopropyl-7-((3-fluoroazetidin-1-yl)carbonyl)-3,4-dihydropyrido[4,3-d]pyrimidin-2(1H)-one], the “inhibitory rate (%)” value is listed as 104%.

For `COC(=O)c1ccc2c(c1)NC(=O)N(c1cc(OCc3ncc(C)s3)ccc1C)C2` [Example 241, methyl 3-(2-methyl-5-((5-methyl-1,3-thiazol-2-yl)methoxy)phenyl)-2-oxo-1,2,3,4-tetrahydroquinazoline-7-carboxylate], the “inhibitory rate (%)” value is 94%.

As for `O=C(c1cc2c(c(C3CC3)n1)CN(c1cc3c(cc1Cl)CCC(c1ncccc1F)O3)C(=O)N2)N1CC2(COC2)C1` (centres unmarked) [Example 137, 3-(6-chloro-2-(3-fluoropyridin-2-yl)-3,4-dihydro-2H-chromen-7-yl)-5-cyclopropyl-7-(2-oxa-6-azaspiro[3.3]hept-6-ylcarbonyl)-3,4-dihydropyrido[4,3-d]pyrimidin-2(1H)-one], the “inhibitory rate (%)” value is 104%.

On to `Cc1cc2c(cc1N1Cc3c(C4CC4)cnc(-c4cnn(C)c4)c3NC1=O)OC(c1ncccc1F)CC2` (centres unmarked) [Example 162, 5-cyclopropyl-3-(2-(3-fluoropyridin-2-yl)-6-methyl-3,4-dihydro-2H-chromen-7-yl)-8-(1-methyl-1H-pyrazol-4-yl)-3,4-dihydropyrido[3,4-d]pyrimidin-2(1H)-one], for which the “inhibitory rate (%)” value is on record as 95%.

With `O=C1Nc2cc(-c3ncco3)nc(C3CC3)c2CN1c1cc2c(cc1Cl)CCC(c1ncccc1F)O2` (centres unmarked) [Example 85, 3-(6-chloro-2-(3-fluoropyridin-2-yl)-3,4-dihydro-2H-chromen-7-yl)-5-cyclopropyl-7-(1,3-oxazol-2-yl)-3,4-dihydropyrido[4,3-d]pyrimidin-2(1H)-one], the “inhibitory rate (%)” value is on record as 102%.

`COCCn1c(=O)n(-c2cc3c(cc2C)CCC(c2ncccc2F)O3)c(=O)c2ccccc21` (centres unmarked) [Example 328, 3-(2-(3-fluoropyridin-2-yl)-6-methyl-3,4-dihydro-2H-chromen-7-yl)-1-(2-methoxyethyl)quinazoline-2,4(1H,3H)-dione]: the “inhibitory rate (%)” value is reported as 111%.

`O=C1Nc2cc(-c3ncon3)nc(C3CC3)c2CN1c1cc2c(cc1Cl)CCC(c1ncccc1F)O2` (centres unmarked) [Example 136, 3-(6-chloro-2-(3-fluoropyridin-2-yl)-3,4-dihydro-2H-chromen-7-yl)-5-cyclopropyl-7-(1,2,4-oxadiazol-3-yl)-3,4-dihydropyrido[4,3-d]pyrimidin-2(1H)-one]: the “inhibitory rate (%)” value stood at 111%.

Turning to `Cc1ccc(OCc2c(F)cccc2F)cc1-n1c(=O)[nH]c2cc(C(C)(C)O)ccc2c1=O` [Example 336, 3-(5-((2,6-difluorobenzyl)oxy)-2-methylphenyl)-7-(2-hydroxypropan-2-yl)quinazoline-2,4(1H,3H)-dione], the “inhibitory rate (%)” value turned out to be 108%.
